Test results as given in patent US20250127874A1, “CMV EPITOPES” (The Council of the Queensland Institute of Medical Research, priority 2016, published 2025).

System: CD8+ T cells
Assay: PBMC from HSCT recipients stimulated with HLA-matched peptide epitopes, cultured two weeks with IL-2, IFN-γ production by CD8+ T cells on recall
Description: To assess the impact of epitope variation and co-infection on IE-1 specific T cell immunity, PBMC samples from HSCT recipients showing evidence of viral reactivation were stimulated with all potentially HLA-matched variant peptide epitopes then cultured in vitro for two weeks in the presence of IL-2. PBMC from nine HSCT recipients showing immune reconstitution with no evidence of CMV reactivation were also stimulated with HLA-matched variant peptide epitopes (Table 2). As a control, PBMC were stimulated with at least two conserved HLA matched epitopes.

Sequence | T cell response against epitope (HLA B44-positive HSCT recipients with reactivation (7)) | T cell response against epitope (recipient 17 (HLA-B8), longitudinal analysis during and after viral reactivation)
EDAIAAYTL (Cytomegalovirus) | failed to induce a significant T cell response in any recipient | –
VTEHDTTLY | – | absence of a detectable response
